#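 Interpolation was linear, between the two tested concentrations surrounding the appropriate level; five concentrations were tested over 48 hours in 96-well plates. GI50 marks 50% less growth. At the TGI there is no net growth.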
# Tests used:
# Experiment in all cases: NCI anticancer screen, dose series, 48 h
# HCT-116 colon = system: HCT-116 colon
# UO-31 renal = system: UO-31 renal
# SF-268 CNS = system: SF-268 CNS
# A549 NSCLC = system: A549 NSCLC
# SK-MEL-28 melanoma = system: SK-MEL-28 melanoma
# HOP-92 NSCLC = system: HOP-92 NSCLC
# BT-549 breast = system: BT-549 breast
# CAKI-1 renal = system: CAKI-1 renal
# HS 578T breast = system: HS 578T breast
# DU-145 prostate = system: DU-145 prostate
# 786-0 renal = system: 786-0 renal
# HL-60(TB) leukemia = system: HL-60(TB) leukemia
# SNB-75 CNS = system: SNB-75 CNS
# NCI/ADR-RES ovarian = system: NCI/ADR-RES ovarian
# MDA-MB-231 breast = system: MDA-MB-231 breast
# OVCAR-8 ovarian = system: OVCAR-8 ovarian
# OVCAR-3 ovarian = system: OVCAR-3 ovarian
# HT29 colon = system: HT29 colon
# COLO 205 colon = system: COLO 205 colon
# CCRF-CEM leukemia = system: CCRF-CEM leukemia
# HCC-2998 colon = system: HCC-2998 colon
# LOX IMVI melanoma = system: LOX IMVI melanoma
# SK-MEL-2 melanoma = system: SK-MEL-2 melanoma
# SF-295 CNS = system: SF-295 CNS
# ACHN renal = system: ACHN renal
# K-562 leukemia = system: K-562 leukemia
# U251 CNS = system: U251 CNS
# T-47D breast = system: T-47D breast
# NCI-H522 lung = system: NCI-H522 lung
# SF-539 CNS = system: SF-539 CNS
# M14 melanoma = system: M14 melanoma
# NCI-H226 lung = system: NCI-H226 lung
# NCI-H23 lung = system: NCI-H23 lung
# HOP-62 NSCLC = system: HOP-62 NSCLC
# SR leukemia = system: SR leukemia
# MDA-MB-435 = system: MDA-MB-435
# IGROV1 ovarian = system: IGROV1 ovarian
# UACC-62 melanoma = system: UACC-62 melanoma
# RPMI-8226 leukemia = system: RPMI-8226 leukemia
# SNB-19 CNS = system: SNB-19 CNS
# TK-10 renal = system: TK-10 renal
# MALME-3M melanoma = system: MALME-3M melanoma
# SN12C renal = system: SN12C renal
# RXF 393 renal = system: RXF 393 renal
# NCI-H460 lung = system: NCI-H460 lung
# SK-MEL-5 melanoma = system: SK-MEL-5 melanoma
# SW-620 colon = system: SW-620 colon
# KM12 colon = system: KM12 colon
# HCT-15 colon = system: HCT-15 colon
# OVCAR-5 ovarian = system: OVCAR-5 ovarian
# PC-3 prostate = system: PC-3 prostate
# EKVX NSCLC = system: EKVX NSCLC
# SK-OV-3 ovarian = system: SK-OV-3 ovarian
# OVCAR-4 ovarian = system: OVCAR-4 ovarian
# UACC-257 melanoma = system: UACC-257 melanoma
# MOLT-4 leukemia = system: MOLT-4 leukemia
# A498 renal = system: A498 renal
# MCF7 breast = system: MCF7 breast
# MDA-N = system: MDA-N
smiles,measurement,setting,value
COc1ccc(CNCCN2C(=O)c3ccc4c5c(ccc(c35)C2=O)C(=O)N(CCNCc2ccc(OC)cc2)C4=O)cc1,GI50,HCT-116 colon,147 nM
same,TGI,HCT-116 colon,688 nM
same,GI50,UO-31 renal,501 nM
same,TGI,UO-31 renal,1980 nM
same,GI50,SF-268 CNS,284 nM
same,TGI,SF-268 CNS,1170 nM
same,GI50,A549 NSCLC,329 nM
same,TGI,A549 NSCLC,1280 nM
same,GI50,SK-MEL-28 melanoma,1210 nM
same,TGI,SK-MEL-28 melanoma,2560 nM
same,GI50,HOP-92 NSCLC,788 nM
same,TGI,HOP-92 NSCLC,2680 nM
same,GI50,BT-549 breast,350 nM
same,TGI,BT-549 breast,1030 nM
same,GI50,CAKI-1 renal,1040 nM
same,TGI,CAKI-1 renal,3380 nM
same,GI50,HS 578T breast,1100 nM
same,TGI,HS 578T breast,4250 nM
same,GI50,DU-145 prostate,468 nM
same,TGI,DU-145 prostate,1700 nM
same,GI50,786-0 renal,1170 nM
same,TGI,786-0 renal,2490 nM
same,GI50,HL-60(TB) leukemia,311 nM
same,TGI,HL-60(TB) leukemia,858 nM
same,GI50,SNB-75 CNS,1150 nM
same,TGI,SNB-75 CNS,2480 nM
same,GI50,NCI/ADR-RES ovarian,288 nM
same,TGI,NCI/ADR-RES ovarian,1210 nM
same,GI50,MDA-MB-231 breast,294 nM
same,TGI,MDA-MB-231 breast,1130 nM
same,GI50,OVCAR-8 ovarian,178 nM
same,TGI,OVCAR-8 ovarian,611 nM
same,GI50,OVCAR-3 ovarian,159 nM
same,TGI,OVCAR-3 ovarian,573 nM
same,GI50,HT29 colon,122 nM
same,TGI,HT29 colon,403 nM
same,GI50,COLO 205 colon,137 nM
same,TGI,COLO 205 colon,281 nM
same,GI50,CCRF-CEM leukemia,227 nM
same,TGI,CCRF-CEM leukemia,3290 nM
same,GI50,HCC-2998 colon,304 nM
same,TGI,HCC-2998 colon,1050 nM
same,GI50,LOX IMVI melanoma,195 nM
same,TGI,LOX IMVI melanoma,583 nM
same,GI50,SK-MEL-2 melanoma,313 nM
same,TGI,SK-MEL-2 melanoma,1140 nM
same,GI50,SF-295 CNS,418 nM
same,TGI,SF-295 CNS,1830 nM
same,GI50,ACHN renal,312 nM
same,TGI,ACHN renal,1560 nM
same,GI50,K-562 leukemia,217 nM
same,TGI,K-562 leukemia,960 nM
same,GI50,U251 CNS,199 nM
same,TGI,U251 CNS,480 nM
same,GI50,T-47D breast,306 nM
same,TGI,T-47D breast,1420 nM
same,GI50,NCI-H522 lung,413 nM
same,TGI,NCI-H522 lung,1920 nM
same,GI50,SF-539 CNS,274 nM
same,TGI,SF-539 CNS,872 nM
same,GI50,M14 melanoma,169 nM
same,TGI,M14 melanoma,348 nM
same,GI50,NCI-H226 lung,637 nM
same,TGI,NCI-H226 lung,2280 nM
same,GI50,NCI-H23 lung,206 nM
same,TGI,NCI-H23 lung,494 nM
same,GI50,HOP-62 NSCLC,579 nM
same,TGI,HOP-62 NSCLC,1990 nM
same,GI50,SR leukemia,220 nM
same,TGI,SR leukemia,984 nM
same,GI50,MDA-MB-435,189 nM
same,TGI,MDA-MB-435,375 nM
same,GI50,IGROV1 ovarian,204 nM
same,TGI,IGROV1 ovarian,670 nM
same,GI50,UACC-62 melanoma,392 nM
same,TGI,UACC-62 melanoma,1500 nM
same,GI50,RPMI-8226 leukemia,487 nM
same,TGI,RPMI-8226 leukemia,3140 nM
same,GI50,SNB-19 CNS,230 nM
same,TGI,SNB-19 CNS,717 nM
same,GI50,TK-10 renal,201 nM
same,TGI,TK-10 renal,754 nM
same,GI50,MALME-3M melanoma,123 nM
same,TGI,MALME-3M melanoma,269 nM
same,GI50,SN12C renal,159 nM
same,TGI,SN12C renal,323 nM
same,GI50,RXF 393 renal,225 nM
same,TGI,RXF 393 renal,981 nM
same,GI50,NCI-H460 lung,250 nM
same,TGI,NCI-H460 lung,943 nM
same,GI50,SK-MEL-5 melanoma,150 nM
same,TGI,SK-MEL-5 melanoma,285 nM
same,GI50,SW-620 colon,168 nM
same,TGI,SW-620 colon,506 nM
same,GI50,KM12 colon,200 nM
same,TGI,KM12 colon,623 nM
same,GI50,HCT-15 colon,179 nM
same,TGI,HCT-15 colon,432 nM
same,GI50,OVCAR-5 ovarian,428 nM
same,TGI,OVCAR-5 ovarian,1890 nM
same,GI50,PC-3 prostate,387 nM
same,TGI,PC-3 prostate,1960 nM
same,GI50,EKVX NSCLC,455 nM
same,TGI,EKVX NSCLC,1730 nM
same,GI50,SK-OV-3 ovarian,1130 nM
same,TGI,SK-OV-3 ovarian,2370 nM
same,GI50,OVCAR-4 ovarian,122 nM
same,TGI,OVCAR-4 ovarian,255 nM
same,GI50,UACC-257 melanoma,184 nM
same,TGI,UACC-257 melanoma,337 nM
same,GI50,MOLT-4 leukemia,282 nM
same,TGI,MOLT-4 leukemia,920 nM
same,GI50,A498 renal,647 nM
same,TGI,A498 renal,2020 nM
same,GI50,MCF7 breast,181 nM
same,TGI,MCF7 breast,533 nM
COc1ccc(NC(=O)c2cc(NC(=O)/C=C/c3ccccc3)c(OC)c(OC)c2)cc1,TGI,HCT-116 colon,> 100000 nM
same,TGI,UO-31 renal,5620 nM
same,TGI,SF-268 CNS,> 100000 nM
same,TGI,A549 NSCLC,> 100000 nM
same,TGI,SK-MEL-28 melanoma,> 100000 nM
same,TGI,HOP-92 NSCLC,> 100000 nM
same,TGI,CAKI-1 renal,> 100000 nM
same,TGI,HS 578T breast,> 100000 nM
same,TGI,DU-145 prostate,> 100000 nM
same,TGI,786-0 renal,> 100000 nM
same,TGI,HL-60(TB) leukemia,45400 nM
same,TGI,SNB-75 CNS,48500 nM
same,TGI,NCI/ADR-RES ovarian,> 100000 nM
same,TGI,MDA-MB-231 breast,> 100000 nM
same,TGI,OVCAR-3 ovarian,> 100000 nM
same,TGI,HT29 colon,> 100000 nM
same,TGI,COLO 205 colon,> 100000 nM
same,TGI,CCRF-CEM leukemia,> 100000 nM
same,TGI,LOX IMVI melanoma,> 100000 nM
same,TGI,SK-MEL-2 melanoma,7270 nM
same,TGI,SF-295 CNS,> 100000 nM
same,TGI,ACHN renal,> 100000 nM
same,TGI,K-562 leukemia,> 100000 nM
same,TGI,U251 CNS,> 100000 nM
same,TGI,T-47D breast,> 100000 nM
same,TGI,SF-539 CNS,> 100000 nM
same,TGI,M14 melanoma,> 100000 nM
same,TGI,NCI-H226 lung,> 100000 nM
same,TGI,MDA-N,16500 nM
same,TGI,NCI-H23 lung,> 100000 nM
same,TGI,HOP-62 NSCLC,> 100000 nM
same,TGI,SR leukemia,> 100000 nM
same,TGI,MDA-MB-435,9380 nM
same,TGI,UACC-62 melanoma,> 100000 nM
same,TGI,RPMI-8226 leukemia,> 100000 nM
same,TGI,SNB-19 CNS,> 100000 nM
same,TGI,TK-10 renal,> 100000 nM
same,TGI,MALME-3M melanoma,99600 nM
same,TGI,SN12C renal,> 100000 nM
same,TGI,RXF 393 renal,> 100000 nM
same,TGI,NCI-H460 lung,> 100000 nM
same,TGI,SK-MEL-5 melanoma,> 100000 nM
same,TGI,SW-620 colon,> 100000 nM
same,TGI,KM12 colon,> 100000 nM
same,TGI,HCT-15 colon,> 100000 nM
same,TGI,OVCAR-5 ovarian,> 100000 nM
same,TGI,PC-3 prostate,> 100000 nM
same,TGI,EKVX NSCLC,> 100000 nM
same,TGI,SK-OV-3 ovarian,> 100000 nM
same,TGI,OVCAR-4 ovarian,> 100000 nM
same,TGI,UACC-257 melanoma,> 100000 nM
same,TGI,MOLT-4 leukemia,> 100000 nM
same,TGI,A498 renal,> 100000 nM
same,TGI,MCF7 breast,> 100000 nM

# Reference: PubChem BioAssay (NCI)
